Experimental data published in patent publication US10835524B2, “Compositions for the treatment of pancreatic cancer and uses thereof” (University of Florida Research Foundation, Incorporated, priority 2015, dated 2020).

Tests used:
[1] = tested on: 4 KRAS mutant PDAC cell lines (MIA PaCa-2, Panc-1, T182, E549); assay: Viability of KRAS mutant PDAC cell lines after single-drug treatment, MTT assay at 72 hours; format: cell-based, human; murine; details: 4 PDAC cell lines
Method: We treated each cell line with the mTOR inhibitor Everolimus, the AKT inhibitor MK-2206, the dual PI-3K/mTOR inhibitor BEZ235, and the MEK inhibitor Selumetinib, or Compound P (mefloquine), prior to viability assessment at 72 hours via MTT assay.
To determine optimal doses for combination, we first analyzed the viability dose-response curves for each drug. […] The optimal dose for each drug was then serially diluted by one-half from the chosen optimal dose to 1/32nd of the chosen optimal dose, such that six combination points could be analyzed. Because the ratio of each drug in each experiment remained constant in all serial dilutions, we refer to this method as the “fixed molar ratio method”.

human TS = human TS (Homo sapiens, UniProt P04818); assay: Inhibition of the enzymatic activity of thymidylate synthase; format: biochemical
PDAC = assay: Inhibition of PDAC in vivo by combination with KRAS/PI-3K/AKT/mTOR pathway inhibitors; details: partner inhibitors not named

Sequence of human TS (P04818 whole entry): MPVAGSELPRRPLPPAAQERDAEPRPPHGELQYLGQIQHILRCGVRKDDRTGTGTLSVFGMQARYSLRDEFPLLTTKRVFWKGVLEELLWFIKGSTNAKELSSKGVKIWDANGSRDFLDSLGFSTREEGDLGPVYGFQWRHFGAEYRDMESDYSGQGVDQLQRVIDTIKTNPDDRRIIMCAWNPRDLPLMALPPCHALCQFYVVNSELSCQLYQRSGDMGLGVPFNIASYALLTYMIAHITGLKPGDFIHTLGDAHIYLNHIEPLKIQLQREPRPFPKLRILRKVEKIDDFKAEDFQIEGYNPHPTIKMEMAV

| Compound | growth inhibition effect on cell viability [1] | mode of inhibition of the enzymatic activity of human TS (human TS) | synergy with inhibitors of the KRAS/PI-3K/AKT/mTOR pathway to inhibit PDAC in vivo (PDAC) |
| --- | --- | --- | --- |
| Cn1c(=O)n(-c2ccc(C(C)(C)C#N)cc2)c2c3cc(-c4cnc5ccccc5c4)ccc3ncc21 [BEZ235, 2-methyl-2-[4-(3-methyl-2-oxo-8-quinolin-3-ylimidazo[4,5-c]quinolin-1-yl)phenyl]propanenitrile] | fully cytotoxic in 3 out of 4 cell lines |  |  |
| OC(c1cc(C(F)(F)F)nc2c(C(F)(F)F)cccc12)C1CCCCN1 (stereo not drawn) [Compound P, [2,8-bis(trifluoromethyl)quinolin-4-yl]-piperidin-2-ylmethanol] | cytotoxic in all cell lines tested | partial mixed-type | synergizes |
| CO[C@H]1C[C@@H]2CC[C@@H](C)[C@@](O)(O2)C(=O)C(=O)N2CCCC[C@H]2C(=O)O[C@H]([C@H](C)C[C@@H]2CC[C@@H](OCCO)[C@H](OC)C2)CC(=O)[C@H](C)/C=C(\C)[C@@H](O)[C@@H](OC)C(=O)[C@H](C)C[C@H](C)/C=C/C=C/C=C/1C [Everolimus, (1S,9R,15R,16E,18R,19R,21S,23R,24E,26E,28E,30S,32R,35S)-1,18-dihydroxy-12-[(2S)-1-[(1S,3R,4R)-4-(2-hydroxyethoxy)-3-methoxycyclohexyl]propan-2-yl]-19,30-dimethoxy-15,17,21,23,29,35-hexamethyl-11,36-dioxa-4-azatricyclo[30.3.1.0^4,^9]hexatriaconta-16,24,26,28-tetraene-2,3,10,14,20-pentone] | potently cytostatic |  |  |
| Cl.Cl.NC1(c2ccc(-c3nc4ccn5c(=O)[nH]nc5c4cc3-c3ccccc3)cc2)CCC1 [MK-2206, 8-[4-(1-aminocyclobutyl)phenyl]-9-phenyl-2H-[1,2,4]triazolo[3,4-f][1,6]naphthyridin-3-one; dihydrochloride] | fully cytotoxic in 3 out of 4 cell lines |  |  |
